This is an account of results in patent US9908893B2 (Latvian Institute of Organic Synthesis, priority 2013, dated 2018).

Series [1] addresses P-glycoprotein (P-gp) (Homo sapiens, UniProt P08183). As to the kind of experiment: Measurement of P-glycoprotein activity: rhodamine 123 accumulation in MES-SA and MES-SA/Dx5 cells. Particulars: summary of the P-gp, MRP1 and BCRP1 efflux assays. As for the experimental part: Thieno[2,3-b]pyridines of the formula (I) were tested to reveal MDR-blocking activity.
About 50,000 cells/well of the human uterine sarcoma cell line MESSA and MES-SA/Dx5 were seeded into the 96-well plates and incubated for 24 h. The MDR modulators were incubated with the cells for 15 min. […] The EC50 values were calculated using the program Graph Pad Prism® 4.0.

For series [2], the system named is A7R5 (rat aorta smooth muscle) cells. As to the kind of experiment: Intracellular Ca2+ measurements, Fluo-4 NW Calcium Assay Kit, KCl-induced [Ca2+]i increase. It is filed as cell-based. Particulars: for IC50: Rattus norvegicus, A7R5, read-out: Ca^2+ A7R5, IC50; for Ca^2+ antagonist effect compared with Verapamil: relative to Verapamil; for Ca^2+ antagonist effect compared with Verapamil / Ca^2+ A7R5, IC50: A7R5 cells; for Ca^2+ A7R5, IC50: KCl (50 mM) induced [Ca2+]i increase, compounds 0.8 to 100 μM. As for the experimental part: Changes in intracellular [Ca^2+] concentration were studied using A7R5 (rat aorta smooth muscle) cells and Fluo-4 NW Calcium Assay Kit (“Invitrogen”, Sweden) according to manufacturer's instructions.
Changes in intracellular [Ca^2+]i concentration were studied using Fluo-4 NW Calcium Assay Kit (“Invitrogen”, Sweden) accordingly to manufacturer's instructions. The A7R5 (rat aorta smooth muscle) cells were grown at 37° C. in a humidified atmosphere with 5% CO2/95% air in DMEM medium containing 2 mM glutamine and supplemented with 10% FBS. The cells were seeded into 96 well plate at 10,000 cells/well and incubated for 72 h. The cells were loaded with […] for 45 min. The Fura-4NW loaded cells were pre-incubated in the dark for 15 minutes with tested compounds at concentrations from 0.8 to 100 μM. Then A7R5 cells were pre-treated with 1.5 mM CaCl2 for 5 minutes and KCl (50 mM) was added to A7R5 cells to induce [Ca^2+]i increase. Amlodipine, the well-known calcium channel inhibitor was used as the positive control.

Series [3] is described as follows: Basal toxicity test, neutral red, alternative LD50 calculated from IC50. Particulars: mouse, LD50, alternative LD50 calculated by formula from IC50 in NIH 3T3 cells. The procedure: A low therapeutic index of chemotherapy agents is due to affecting not only cancer formation but also normal cells.
9,000 NIH 3T3 cells/well were placed into 96-well plates for 24 h and then exposed to the test compound over a range of eight concentration (1-1000 μg/ml) for 24 h. Upon that, the cells were incubated with the neutral red dye for 4 h and then OD was determined at 540 nm. […] The IC50 values were calculated using the program Graph Pad Prism® 4.0

A word on the IC50: it is the point on the concentration scale where inhibition reaches its midpoint. Broadly, the LD50 is the dose expected to kill half of the subjects tested.

Each structure is given as a SMILES string.

Chain of P-glycoprotein (P-gp) (P08183 whole entry): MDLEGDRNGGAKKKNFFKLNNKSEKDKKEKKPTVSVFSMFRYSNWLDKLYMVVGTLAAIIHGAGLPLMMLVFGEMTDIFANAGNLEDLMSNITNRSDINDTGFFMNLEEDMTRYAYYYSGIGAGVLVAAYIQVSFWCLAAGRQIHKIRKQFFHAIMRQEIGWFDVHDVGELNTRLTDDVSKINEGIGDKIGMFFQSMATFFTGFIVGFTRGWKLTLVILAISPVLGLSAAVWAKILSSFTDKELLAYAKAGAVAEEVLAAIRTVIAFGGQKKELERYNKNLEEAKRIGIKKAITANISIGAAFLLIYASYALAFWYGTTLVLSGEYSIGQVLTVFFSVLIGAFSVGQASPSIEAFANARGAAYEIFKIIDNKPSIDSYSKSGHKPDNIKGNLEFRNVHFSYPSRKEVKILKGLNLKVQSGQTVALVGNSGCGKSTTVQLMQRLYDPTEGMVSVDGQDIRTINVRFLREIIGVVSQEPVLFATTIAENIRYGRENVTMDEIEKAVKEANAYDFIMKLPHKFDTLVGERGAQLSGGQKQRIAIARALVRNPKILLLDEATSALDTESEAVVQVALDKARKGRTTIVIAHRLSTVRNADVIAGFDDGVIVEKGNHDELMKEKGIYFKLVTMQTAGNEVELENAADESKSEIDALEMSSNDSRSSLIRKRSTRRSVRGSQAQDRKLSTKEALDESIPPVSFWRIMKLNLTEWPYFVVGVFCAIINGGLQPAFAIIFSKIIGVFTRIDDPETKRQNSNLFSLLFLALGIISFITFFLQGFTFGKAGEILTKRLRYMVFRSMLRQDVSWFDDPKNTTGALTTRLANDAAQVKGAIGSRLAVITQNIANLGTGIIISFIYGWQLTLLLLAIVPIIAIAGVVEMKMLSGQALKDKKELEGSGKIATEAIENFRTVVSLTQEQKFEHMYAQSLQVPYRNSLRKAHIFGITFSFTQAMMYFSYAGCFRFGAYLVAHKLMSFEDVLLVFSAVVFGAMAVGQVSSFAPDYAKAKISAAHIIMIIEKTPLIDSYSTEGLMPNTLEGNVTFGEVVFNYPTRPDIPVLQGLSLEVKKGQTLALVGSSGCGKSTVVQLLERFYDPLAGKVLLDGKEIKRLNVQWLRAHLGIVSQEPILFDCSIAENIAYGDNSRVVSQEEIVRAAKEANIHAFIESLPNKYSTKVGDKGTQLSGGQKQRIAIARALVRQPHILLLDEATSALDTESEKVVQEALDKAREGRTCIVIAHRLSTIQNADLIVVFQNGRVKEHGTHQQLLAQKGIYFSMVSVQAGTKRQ

Turning to `COC(=O)c1c(C)nc2sc(C(=O)c3ccc(OC)cc3)c(N)c2c1-c1cc(OC)c(OC)c(OC)c1` [Compound 10, 3-Amino-2-(4-methoxybenzoyl)-6-methyl-4-(3,4,5-trimethoxyphenyl)thieno[2,3-b]pyridine-5-carboxylic acid methyl ester], the “inhibition of MDR transport proteins (P-gp, MRP1, BCRP1), summary in words” value in series [1] is “inhibit three MDR transport proteins: P-gp, MRP1 and BCRP1”. Moreover, in series [2], the IC50 was 9 ± 0.7 µM and the “Ca^2+ antagonist effect compared with Verapamil” value is recorded as “more than ten times lower”. Further, the LD50 at 24 h in series [3] was over 2000 mg/kg.

As for `COC(=O)c1c(C)nc2sc(C(=O)c3ccc(OC)cc3OC)c(N)c2c1-c1cc(OC)c(OC)c(OC)c1` [Compound 11, 3-Amino-2-(2,4-dimethoxybenzoyl)-6-methyl-4-(3,4,5-trimethoxyphenyl)thieno[2,3-b]pyridine-5-carboxylic acid methyl ester], the “inhibition of MDR transport proteins (P-gp, MRP1, BCRP1), summary in words” value in series [1] was “inhibit three MDR transport proteins: P-gp, MRP1 and BCRP1”. Moreover, in series [2], the IC50 was 18 ± 1 µM and the “Ca^2+ antagonist effect compared with Verapamil” value is “more than ten times lower”. The LD50 at 24 h in series [3] is over 2000 mg/kg.

Regarding `CCOC(=O)c1c(C)nc2sc(C(=O)c3ccc(OC)cc3)c(N)c2c1-c1ccc(N(C)C)cc1` [Compound 29, 3-Amino-4-(4-dimethylaminophenyl)-2-(4-methoxybenzoyl)-6-methylthieno[2,3-b]-pyridine-5-carboxylic acid ethylester], the “inhibition of MDR transport proteins (P-gp, MRP1, BCRP1), summary in words” value in series [1] is “selectively inhibit P-gp and BCRP1”. Besides, the IC50 in series [2] came out at 35 ± 3 µM. Besides, the LD50 at 24 h in series [3] is over 2000 mg/kg.

As for `COCCOC(=O)c1c(C)nc2sc(C(=O)c3cccc(OC)c3)c(N)c2c1-c1cc(OC)c(OC)c(OC)c1` [Compound 33, 3-Amino-2-(3-methoxybenzoyl)-6-methyl-4-(3,4,5-trimethoxyphenyl)thieno[2,3-b]-pyridine-5-carboxylic acid 2-methoxyethyl ester], the “inhibition of MDR transport proteins (P-gp, MRP1, BCRP1), summary in words” value in series [1] was “selectively inhibit P-gp and BCRP1”. Further, the IC50 in series [2] was 6.2 ± 0.7 µM. Further, the LD50 at 24 h in series [3] is over 2000 mg/kg.

Consider `COCCOC(=O)c1c(C)nc2sc(C(=O)c3ccc(OC)cc3)c(N)c2c1-c1cc(OC)c(OC)c(OC)c1` [Compound 34, 3-Amino-2-(4-methoxybenzoyl)-6-methyl-4-(3,4,5-trimethoxyphenyl)thieno[2,3-b]-pyridine-5-carboxylic acid 2-methoxyethyl ester], for which, in series [2], the IC50 turned out to be 3.1 ± 0.4 µM and the “Ca^2+ antagonist effect compared with Verapamil” value is “more than ten times lower”. The LD50 at 24 h in series [3] is over 2000 mg/kg.

For the molecule `COCCOC(=O)c1c(C)nc2sc(C(=O)c3ccc(OC)cc3OC)c(N)c2c1-c1cc(OC)c(OC)c(OC)c1` [Compound 35, 3-Amino-2-(2,4-dimethoxybenzoyl)-6-methyl-4-(3,4,5-trimethoxyphenyl)-thieno[2,3-b]pyridine-5-carboxylic acid 2-methoxyethyl ester], in series [2], the IC50 worked out at 9 ± 1 µM and the “Ca^2+ antagonist effect compared with Verapamil” value is listed as “more than ten times lower”. Besides, in series [3], the LD50 at 24 h was over 2000 mg/kg.

Consider `CCOC(=O)c1c(-c2cc(OC)c(OC)c(OC)c2)nc2sc(C(=O)c3ccc(OC)cc3)c(N)c2c1-c1cc(OC)c(OC)c(OC)c1` [Compound 39, 3-Amino-4,6-bis-(3,4,5-trimethoxyphenyl)-2-(4-methoxybenzoyl)thieno[2,3-b]-pyridine-5-carboxylic acid ethyl ester], for which, in series [2], the “Ca^2+ A7R5, IC50” value is on record as “No effect”. Also, the LD50 at 24 h in series [3] was over 2000 mg/kg.

With `CCOC(=O)c1c(-c2cc(OC)c(OC)c(OC)c2)nc2sc(C(=O)c3cc(OC)c(OC)c(OC)c3)c(N)c2c1-c1cc(OC)c(OC)c(OC)c1` [Compound 40, 3-Amino-4,6-bis-(3,4,5-trimethoxyphenyl)-2-(3,4,5-trimethoxybenzoyl)-thieno[2,3-b]pyridine-5-carboxylic acid ethyl ester], in series [2], the “Ca^2+ A7R5, IC50” value is reported as “No effect”. The LD50 at 24 h in series [3] was over 2000 mg/kg.
